Columns and labels:
[1] = system: isolated gastric fundic gland; assay: CAP: Acid Secretion Inhibition Test In Vitro ([14C]-aminopyrine uptake); type: cell-based, rabbit (male Japanese White); conditions: Oryctolagus cuniculus; final concentration 10^-5 M; histamine 10^-5 M stimulation; read-out: CAP: acid secretion inhibitory rate
Description: CAP: Acid Secretion Inhibition Test In Vitro
The acid secretion inhibitory activity in a cell level is studied. It can also be used for studying the mechanism of the effect.
First, an isolated gastric fundic gland sample was prepared. Namely, a male Japanese White rabbit (2.5 to 3 kg) was anesthetized to death with Nembutal™ and then the abdomen was incised. Immediately thereafter, the stomach was removed and, after its pyloric and cardiac antrum were severed, incised along its greater curvature into two sheets. The gastric contents adhering to the mucosal surface was washed out with ice-cooled PBS (-) and then carefully washed therein. The gastric wall was spread on a cork board with its mucosal surface facing up and the feed and mucus thereon were completely removed with sterile gauze. The mucosa was separated therefrom by a spatula and then collected in ice-cooled PBS (-). After being washed twice with PBS (-), the mucosa was minced into 2-3 mm^3 pieces by scissors. These pieces were further washed twice with a nutrient solution. The nutrient solution comprises 132.4 mM of NaCl, 5.4 mM of KCl, 5 mM of Na2 HPO4. 12H2 O, 1 mM of NaH2 PO4.2H2 O, 1.2 mM of MgSO4, 1 mM of CaCl2, 25 mM of HEPES, 2 mg/ml of glucose, and 1 mg/ml of BSA.
Into 70 ml of the nutrient solution containing 1 mg/ml of collagenase, minced mucosal pieces were dispersed and intensely stirred in a conical flask with a stirrer at 37° C. for 40 to 60 minutes. During this period, 100% O2 was sprayed on the nutrient solution surface and the pH was appropriately measured such that it was immediately adjusted to pH 7.4, when the value was therebelow, with a base. The nutrient solution was added to the reaction solution so as to attain the total amount of about 200 ml. After being filtered through a mesh, the suspension was divisionally introduced into 50 ml centrifuge tubes and left for 15 minutes such that gastric fundic gland was deposited. The supernatant was repeatedly removed by an aspirator, dispersed in the nutrient solution, and then left such that the gastric fundic gland was washed three times. At this time, without using a pipette, the suspension was alternately introduced into two centrifuge tubes so as to effect dispersion. The number of cells was counted under microscope and adjusted to 1.6×10^6 cells/ml.
Then, [^14 C]-aminopyrine uptake test was performed. After an Eppendorf tube was weighed, 10 μl (final concentration: 10^-5 M) of histamine dissolved in the above-mentioned nutrient solution, 10 μl (final concentration: […]) of the test compound dissolved in DMSO, and 10 μl (final concentration: 0.05 μCi/ml) of [^14 C]-aminopyrine diluted with the nutrient solution were introduced therein and then 970 μl of the isolated gastric fundic gland suspension prepared above was added thereto. Subsequently, this mixture was shaken at 37° C. for 40 minutes at 125 cycles/minute. After being centrifuged for 30 seconds, 200 μl of its supernatant was collected into a mini-vial, while the rest was removed by an aspirator. The gland pellet was completely dried as the tube with its lid being opened was kept for one night in a drying oven at 80° C. and then the lid was closed and the weight was determined at room temperature. Then 100 μl of 1N KOH was added thereto and the tube with its lid being closed was treated at 60° C. for 1 to 2 hours so as to dissolve the pellet. Then, the contents thereof were transferred to a mini-vial. Into the mini-vial containing the supernatant or gland pellet, 4 ml of Atomlite™ was added and then the radioactivity was measured by a liquid scintillation counter. Here, after the radioactivity of the gland pellet was corrected by using a sample in which 20 mM of NaSCN was added so as to cancel the hydrogen ion concentration gradient, the integration ratio of aminopyrine specifically trapped by the gland pellet was calculated. This experiment was performed in duplicate.
Here, its principle will be briefly explained. […]

[2] = MTT: Cell Damaging and Protecting Effect Test; type: cell-based, rabbit (male Japanese White); conditions: rabbit, gastric corpus mucosa cells, final concentration 10^-4 M, smaller value is better, read-out: MTT: cell damaging rate
Excerpt: MTT: Cell Damaging and Protecting Effect Test
It is confirmed that there is no toxicity in cell level. Those having a toxicity in cell level are inappropriate as an anti-ulcer drug.
A male Japanese White rabbit (2.5 to 3 kg) was anesthetized to death by Nembutal™ and, immediately thereafter, its stomach was removed. The greater curvature of the stomach was incised so as to remove the stomach contents therefrom. After the mucosal surface was washed with HBSS (Hanks' Balanced Salt Solution), the stomach in ice-cooled HBSS was transferred to a laboratory. Then, after the pyloric antrum was removed, the gastric corpus mucosa was separated by a spatula and then minced into 2 to 3 mm^3 pieces in BME (Basal Medium Eagle). Thereafter, these pieces were shaken at 120 to 130 cycles/minute for 15 minutes at 37° C. in BME 60 ml containing 280 U/ml of dispase and 30 to 50 U/ml of collagenase. Here, the concentration of collagenase was appropriately changed for each lot in view of the state of cells. The pieces were washed twice with EBSS (Earle's Balanced Salt Solution) containing 1 mM of EDTA and then shaken in MEM (Minimum Essential Medium) containing 1 mM of EDTA at 37° C. for 5 minutes. Subsequently, they were shaken in the dispase and collagenase having the same concentrations as those mentioned above for 15 minutes so as to remove the supernatant and then further shaken at 37° C. for 50 to 60 minutes at 120 to 130 cycles/minute. Then, after being washed twice with HBSS, Ham F12 containing 2% of Ultrocer G™ was used to attain the concentration of 1×10^6 cells/ml. Thus formed suspension was dispensed in each well of a 96-well plate by 200 μl. The plate was incubated in the atmosphere composed of 5% CO2 and 95% air at 37° C. for three days so as to attain a confluent state and then subjected to MTT assay.
The sample compound was dissolved in DMSO so as to attain a concentration of 10^-2 M and then diluted with HBSS containing 2% of Ultrocer G™ so as to attain a final concentration of 10^-4 M. To each group, which 8 wells were used for, 10 μl of MTT reagent was added immediately after 100 μl of the medium in each well was exchanged for same volume of the resulting solution of the sample compound. After being incubated in an atmosphere composed of 5% CO2 and 95% air at 37° C. for 4 hours, thus formed solution was centrifuged and then its supernatant was discarded. Subsequently, 100 μl of 100% ethanol was added to the residue so as to dissolve MTT formazan. Then, the absorbance (OD: 570 to 630) was measured by a microplate reader. This method utilizes a phenomenon in which MTT is changed to MTT formazan only by mitochondria of living cells so as to change color.
The cell damaging or cell protecting effect of the sample compound at the final concentration of 10^-4 M was expressed as cell damaging rate (%) as follows:
cell damaging rate (%)=(1-(absorbance in sample group/absorbance in control
Accordingly, the smaller value is better in the cell damaging rate.

[3] = system: stress ulcer formation in rats; assay: WIS: Restraint and Water Immersion Stress-Induced Ulcer Inhibition Test; type: in vivo, rat (male Crj:SD or Slc:SD); conditions: 100 mg/kg oral, 10 minutes before 7 h restraint and water immersion (21° C.)
Description: WIS: Restraint and Water Immersion Stress-Induced Ulcer Inhibition Test
The degree of inhibition of the stress ulcer formation is tested.
Male Crj:SD or Slc:SD rats (6 to 7-week-old) were fasted overnight, but allowed free access to water. Each group has 5 to 8 of these rats. The sample compound was dissolved or suspended in an aqueous solution of 0.3% sodium carboxymethylcellulose or 0.05% Tween 80 and then was orally administered (100 mg/10 ml/kg). To a control group, the vehicle was administered. 10 minutes later, the rats were placed in a stress cage and immersed to the level of xipfoid process in a water bath (21° C.) for 7 hours. At the end of the stress, the rats were sacrificed by inhalation of ether or carbon dioxide. Then, the stomach of each was removed, inflated by injecting 10 ml of 5% formalin neutral buffer solution, and immersed in 1% formalin neutral buffer solution for 30 minutes or more to be fixed. The stomach was incised along the greater curvature and then the length of each erosion in the glandular portion was determined under dissecting microscope. The sum of the length of erosions per stomach was defined as ulcer index (UI).
The effect obtained when 100 mg/kg of the sample compound had been administered was expressed as ulcer formation inhibitory rate (%) as follows:
ulcer formation inhibitory rate (%)=(1-(UI in sample group/UI in control

With `CC(C)N(CCNC(=O)c1ccc(NC(=O)C(C)(C)C)cc1)C(C)C` [Example 69] the inhibition at 10 µM [1] was 31.5%, the cytotoxicity at 4 h, 100 µM [2] was 35% and the “WIS: ulcer formation inhibitory rate” value [3] was 95%.
In the case of `CCN(CC)CCNC(=O)c1ccccc1OC/C=C(\C)CCC=C(C)C` [Example 2], the inhibition at 10 µM [1] is reported as 99.9%, the cytotoxicity at 4 h, 100 µM [2] is reported as 28% and the “WIS: ulcer formation inhibitory rate” value [3] is reported as 82%.
For `CCN(CC)CCNC(=O)c1ccc(OC/C=C(\C)CCC=C(C)C)cc1OC/C=C(\C)CCC=C(C)C` [Example 15], the inhibition at 10 µM [1] was 96.5%, the cytotoxicity at 4 h, 100 µM [2] was 44% and the “WIS: ulcer formation inhibitory rate” value [3] was 92%.
In the case of `CC(C)Cc1cc(C(=O)NCCN(C(C)C)C(C)C)ccc1OCc1ccc(F)cc1` [Example 57], the inhibition at 10 µM [1] is reported as 100%, the cytotoxicity at 4 h, 100 µM [2] is reported as 43% and the “WIS: ulcer formation inhibitory rate” value [3] is reported as 45%.
For `CCCCCc1ccc(C(=O)NCCN(C(C)C)C(C)C)cc1` [Example 62], the inhibition at 10 µM [1] was 101%, the cytotoxicity at 4 h, 100 µM [2] was 40% and the “WIS: ulcer formation inhibitory rate” value [3] was 72%.
With `CCN(CC)CCNC(=O)c1ccc(OC)c(OC/C=C(\C)CCC=C(C)C)c1` [Example 29] the inhibition at 10 µM [1] was 100%, the cytotoxicity at 4 h, 100 µM [2] was 49% and the “WIS: ulcer formation inhibitory rate” value [3] was 81%.
With `CC(C)Oc1ccc(C(=O)NCCN(C(C)C)C(C)C)cc1` [Example 59] the inhibition at 10 µM [1] was 47.5%, the cytotoxicity at 4 h, 100 µM [2] was 39% and the “WIS: ulcer formation inhibitory rate” value [3] was 89%.
With `CCN(CC)CCNC(=O)c1ccc(OC/C=C(\C)CCC=C(C)C)nc1` [Example 50] the inhibition at 10 µM [1] was 95.2%, the cytotoxicity at 4 h, 100 µM [2] was 4% and the “WIS: ulcer formation inhibitory rate” value [3] was 42%.
With `CCN(CC)CCNC(=O)c1cccc(OC)c1OC/C=C(\C)CCC=C(C)C` [Example 31] the inhibition at 10 µM [1] was 100%, the cytotoxicity at 4 h, 100 µM [2] was 17% and the “WIS: ulcer formation inhibitory rate” value [3] was 73%.
For `CCN(CC)CCNC(=O)c1ccc(CC(C)C)c(O)c1` [Example 56], the inhibition at 10 µM [1] was 53.4%, the cytotoxicity at 4 h, 100 µM [2] was 11% and the “WIS: ulcer formation inhibitory rate” value [3] was 69%.
With `CC(C)N(CCNC(=O)c1cccc(CN2CCCCC2)c1)C(C)C` [Example 66] the inhibition at 10 µM [1] was 38.3%, the cytotoxicity at 4 h, 100 µM [2] was 12% and the “WIS: ulcer formation inhibitory rate” value [3] was 53%.
For `CCN(CC)CCNC(=O)c1cc(OCC=C(C)C)ccc1OCC=C(C)C` [Example 21], the inhibition at 10 µM [1] was 100%, the cytotoxicity at 4 h, 100 µM [2] was 36% and the “WIS: ulcer formation inhibitory rate” value [3] was 77%.
In the case of `CCN(CC)CCNC(=O)c1ccc(OCC=C(C)C)cc1` [Example 3], the inhibition at 10 µM [1] is reported as 70.8%, the cytotoxicity at 4 h, 100 µM [2] is reported as 1% and the “WIS: ulcer formation inhibitory rate” value [3] is reported as 88%.
In the case of `CC(C)=CCC/C(C)=C/COc1ccc(C(=O)NCCN(C(C)C)C(C)C)cn1` [Example 51], the inhibition at 10 µM [1] is reported as 94.7%, the cytotoxicity at 4 h, 100 µM [2] is reported as 15% and the “WIS: ulcer formation inhibitory rate” value [3] is reported as 72%.
For `CCN(CC)CCNC(=O)c1ccc(OCC=C(C)C)cc1OCC=C(C)C` [Example 20], the inhibition at 10 µM [1] was 100%, the cytotoxicity at 4 h, 100 µM [2] was 28% and the “WIS: ulcer formation inhibitory rate” value [3] was 67%.
With `CCN(CC)CCNC(=O)c1ccc(OC)cc1OC/C=C(\C)CCC=C(C)C` [Example 32] the inhibition at 10 µM [1] was 100%, the cytotoxicity at 4 h, 100 µM [2] was 28% and the “WIS: ulcer formation inhibitory rate” value [3] was 73%.
For `CCC(C)N(CCNC(=O)c1ccc(OC/C=C(\C)CCC=C(C)C)cc1)C(C)CC` (centres unmarked) [Example 8], the inhibition at 10 µM [1] was 99.9%, the cytotoxicity at 4 h, 100 µM [2] was 38% and the “WIS: ulcer formation inhibitory rate” value [3] was 58%.
For `CCN(CC)CCNC(=O)c1ccc(OCC=C(C)C)c(OCC=C(C)C)c1` [Example 22], the inhibition at 10 µM [1] was 99.8%, the cytotoxicity at 4 h, 100 µM [2] was 16% and the “WIS: ulcer formation inhibitory rate” value [3] was 81%.
For `CCN(CC)CCNC(=O)c1ccc(OC/C=C(/C)CCC=C(C)C)cc1` [Example 5], the inhibition at 10 µM [1] was 109%, the cytotoxicity at 4 h, 100 µM [2] was 30% and the “WIS: ulcer formation inhibitory rate” value [3] was 90%.
With `CC(C)=CCC/C(C)=C/COc1ccc(C(=O)NCCN(CC(C)C)CC(C)C)cc1` [Example 9] the cytotoxicity at 4 h, 100 µM [2] was 15% and the “WIS: ulcer formation inhibitory rate” value [3] was 40%.
In the case of `CCN(CC)CCNC(=O)c1cc(F)ccc1OC/C=C(\C)CCC=C(C)C` [Example 35], the inhibition at 10 µM [1] is reported as 105%, the cytotoxicity at 4 h, 100 µM [2] is reported as 25% and the “WIS: ulcer formation inhibitory rate” value [3] is reported as 81%.
In the case of `CC(C)=CCC/C(C)=C/COc1ccccc1C(=O)NCCN(C)C` [Example 13], the inhibition at 10 µM [1] is reported as 96.6%, the cytotoxicity at 4 h, 100 µM [2] is reported as 19% and the “WIS: ulcer formation inhibitory rate” value [3] is reported as 75%.
With `CCN(CC)CCNC(=O)c1cc(OC)ccc1OC/C=C(\C)CCC=C(C)C` [Example 33] the inhibition at 10 µM [1] was 100%, the cytotoxicity at 4 h, 100 µM [2] was 26% and the “WIS: ulcer formation inhibitory rate” value [3] was 67%.
With `CC(C)=CCC/C(C)=C/CN(C/C=C(\C)CCC=C(C)C)c1ccc(C(=O)NCCN(C(C)C)C(C)C)cc1` [Example 27] the inhibition at 10 µM [1] was 38.5%, the cytotoxicity at 4 h, 100 µM [2] was 39% and the “WIS: ulcer formation inhibitory rate” value [3] was 45%.

From patent publication US6001880A, “Alkylenediamine derivative, anti-ulcer drug, and antibacterial drug” (Shiseido Co., Ltd., priority 1997, dated 1999)
